This passage reports IC50 results from ChEMBL document CHEMBL1127663, “High-affinity and potent, water-soluble 5-amino-1,4-benzodiazepine CCKB/gastrin receptor antagonists containing a cationic solubilizing group” (J Med Chem, 1994).

The target in test [1] is T1, Cholecystokinin receptor type A (Rattus norvegicus, UniProt P30551).
T1 sequence (P30551 whole entry): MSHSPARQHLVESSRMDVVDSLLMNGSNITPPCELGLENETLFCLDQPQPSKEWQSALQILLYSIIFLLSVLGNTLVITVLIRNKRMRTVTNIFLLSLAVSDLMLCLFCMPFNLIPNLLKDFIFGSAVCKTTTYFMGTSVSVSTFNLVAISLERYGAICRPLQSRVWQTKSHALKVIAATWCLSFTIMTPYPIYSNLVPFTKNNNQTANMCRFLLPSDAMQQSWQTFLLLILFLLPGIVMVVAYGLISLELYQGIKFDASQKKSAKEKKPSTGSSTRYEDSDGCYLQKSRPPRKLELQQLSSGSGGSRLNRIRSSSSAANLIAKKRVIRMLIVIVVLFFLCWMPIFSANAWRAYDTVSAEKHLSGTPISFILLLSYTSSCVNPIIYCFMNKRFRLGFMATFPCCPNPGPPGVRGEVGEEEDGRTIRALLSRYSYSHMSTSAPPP
Nature of the test: Binding activity against Cholecystokinin type A receptor from rat pancreas using [125]BH CCK-8s as radioligand.

Test [2] is described as follows: Binding activity against Cholecystokinin type B receptor from guinea pig cortex using [125]BH CCK-8s as radioligand.

Take `Cc1cccc(NC(=O)NC2N=C(N3CC4CCC(CC4)C3)c3ccccc3N(C)C2=O)c1` (centres undefined): the half-maximal inhibitory concentration (IC50) – broadly, the concentration that inhibits the measured activity by half – in test [1] came out at 19.9 nM.

`Cc1cccc(NC(=O)NC2N=C(N3CCCCC3)c3ccccc3N(C)C2=O)c1` (centres undefined): the IC50 in test [1] was 17 nM.

For `Cc1cccc(NC(=O)N[C@H]2N=C(N3CC4CCC(CC4)C3)c3ccccc3N(C)C2=O)c1`, the IC50 in test [1] worked out at 6.5 nM.

`Cc1cccc(NC(=O)N[C@@H]2N=C(C3CCCCC3)c3ccccc3N(C)C2=O)c1`: the IC50 in test [2] amounted to 0.28 nM.
